{"source": "patent US11446269B2", "about": "“Methods of reducing or preventing oxidation of small dense LDL or membrane polyunsaturated fatty acids” (Amarin Pharmaceuticals Ireland Limited, priority 2014, dated 2022)", "key": {"[1]": {"experiment": "Glucose-induced membrane lipid peroxidation (LOOH, CHOD-iodide assay) in DLPC/cholesterol multilamellar vesicles (Example 4)", "assay_type": "biochemical", "settings": "glucose 200 mg/dL", "procedure": "Vitamin E (α-tocopherol) was also purchased from Sigma-Aldrich and prepared in ethanol at 1.0 mM (ε=3.06×10^4 M^−1 cm^−1 at 294 nm) just prior to experimental use. […] All test compounds were further diluted in ethanol or aqueous buffer as needed. Glucose was prepared in saline buffer (0.5 mM HEPES, 154 mM NaCl, pH 7.3) at 11.0 mM (200 mg/dL). CHOD-iodide color reagent (stock) was prepared, with slight modification, as described by from El-Saadani et al. (J. […] Samples were shell-dried under nitrogen gas and placed under vacuum for 1 h to remove residual solvent. […] Lipid suspensions were then vortexed for 3 min at ambient temperature to form MLVs. All MLV samples were subjected to time-dependent autoxidation by incubating at 37° C. in an uncovered, shaking water bath. This method allows lipid peroxidation to occur gradually without requiring the use of exogenous initiators. Small aliquots (5-100 μL) of each sample were removed, immediately following MLV preparation (0 hour) and after exposing samples to oxidative conditions for 72 or 96 hour, and combined with 1.0 mL of activated CHOD-iodide color reagent. Aliquot volume was reduced with each successive time point to ensure that spectrophotometric readings were within the optimal adsorption range. Test samples were covered and incubated in darkness at room temperature for at least 4 hr. Sample absorbances were then measured against a CHOD blank at 365 nm using a Beckman DU-640 spectrophotometer. The CHOD colorimetric assay is based on the oxidation of iodide (I^−) by lipid hydroperoxide (LOOH) to form triiodide (I3^−), the quantity of which is directly proportional to the amount of LOOH present in the lipid sample. The molar absorptivity (c) of I3^− is 2.46×10^4 M^−1 cm^−1 at 365 nm. […] The concentration of glucose selected was consistent with previous experimental studies of hyperglycemia under controlled laboratory conditions or observed in well-defined animal models of Type II diabetes following a glucose challenge. […] Values in FIG. 1 are mean±S.D. (N=6). EPA inhibited the peroxidative effects of glucose by 88% and 86% at 72 and 96 hours, respectively, which was highly significant (p<0.001) as compared to glucose treatment alone. […] Overall ANOVA—0 hour data: p=0.6655, F=0.4185; 72 hour data: p<0.0001, F=428.72; 96 hour data: p<0.0001, F=322.01."}, "human sdLDL [2]": {"tested_on": "human sdLDL", "experiment": "Copper-induced sdLDL oxidation, TBARS (Example 7)", "assay_type": "biochemical", "settings": "1 hr; for effect on sdLDL oxidation: 10 μM, vs vehicle-treated controls", "procedure": "(§1) An experiment to study the antioxidant effect of EPA in LDL and small dense […] performed. […] Fenofibrate, gemfibrozil, and niacin were purchased from Sigma-Aldrich. […] Vitamin E was also incubated with sample aliquots as a positive control."}, "unfractionated LDL [3]": {"tested_on": "unfractionated LDL", "experiment": "Copper-induced oxidation of unfractionated LDL, TBARS (Example 7)", "assay_type": "biochemical, human", "settings": "10 μM, 1 hr, vs vehicle-treated controls", "procedure": "as §1"}, "[4]": {"experiment": "X-ray diffraction of cholesterol domains in POPC/cholesterol model membranes, C/P 1.5:1 (Example 9)", "settings": "drug-to-phospholipid mole ratio 1:30, C/P 1.5:1", "procedure": "Multilamellar vesicles (MLVs) were prepared as binary mixtures that include palmitoyloleoylphosphatidylcholine (POPC) (1.0 mg total phospholipid per sample) and cholesterol at an elevated cholesterol-to-phospholipid (C/P) mole ratio of 1.5:1. […] Samples were shell-dried under nitrogen gas and placed under vacuum for 3 hours to remove residual solvent at room temperature. After desiccation, each sample was resuspended in saline buffer (0.5 mM HEPES, 154 mM NaCl, pH 7.3) to yield a final phospholipid concentration of 2.5 mg/mL. Lipid suspensions were then vortexed for 3 minutes at ambient temperature to form MLVs.\nBriefly, a 100 μL aliquot of each MLV preparation (containing 250 μg MLV) was transferred to a Lucite® sedimentation cell fitted with an aluminum foil substrate designed to collect MLVs into a single membrane pellet upon centrifugation. Samples were then loaded into a Sorvall AH-629 swinging bucket rotor (DuPont Corp., Wilmington, Del.) and centrifuged at 35,000 g, 5° C., for 90 minutes.\nAfter centrifugal orientation, sample supernatants were aspirated and aluminum foil substrates, each supporting a single membrane pellet, were removed from the sedimentation cells. Sample pellets were dried for 5-10 minutes at ambient conditions, mounted onto curved glass supports, and placed in hermetically-sealed, brass or glass containers (for immediate analysis or temporary storage, respectively). All x-ray diffraction experiments were conducted at 20° C., 74% relative humidity. The latter was established by exposing membrane samples to saturated solutions of […] (K2C4H4O6.½H2O) for at least 1 hour prior to experimental analysis.\nOriented membrane samples were aligned at grazing incidence with respect to a collimated, mono-chromatic CuKα x-ray beam (Kα1 and Kα2 unresolved; λ=1.54 Å) produced by a Rigaku Rotaflex RU-200, high-brilliance microfocus generator (Rigaku-MSC, The Woodlands, Tex.) as previously described (Mason et al., Biophys. J., vol. 55(4), pages 769-778 (1989)). The samples were initially subjected to x-ray diffraction analysis at least 12 hours after formation of the membrane pellets and retested for up to several days. Analytical x-rays were generated by electron bombardment of a rotating copper anode and are filtered through a thin nickel foil to provide monochromatic radiation (λ=1.54 Å). Collimation of the x-ray beam was achieved using a single Franks mirror. […]\nThe d-space for any given membrane multi bilayer is a measurement of the unit cell periodicity of the membrane lipid bilayer (e.g., the distance from the center of one lipid bilayer to the next including surface hydration), and is calculated from Bragg's Law, hλ=2d sin θ, where h is the diffraction order, λ is the wavelength of the x-ray radiation (1.54 Å), d is the membrane lipid bilayer unit cell periodicity, and θ is the Bragg angle equal to one-half the angle between the incident beam and scattered beam.\nThe presence of cholesterol domains in a given membrane sample results in the production of distinct Bragg (diffraction) peaks having singular periodicity values of 34 and 17 Å (typically referred to as first- and second-order cholesterol domain peaks). Under the specific temperature and relative humidity conditions established for these experiments, the second-order, 17 Å cholesterol domain peak was well-delineated from other, neighboring cholesterol and phospholipid diffraction peaks and was thus used to quantitate relative cholesterol domain peak intensity. […]"}, "sdLDL": {"tested_on": "sdLDL", "experiment": "Glucose-induced sdLDL oxidation, MDA/TBARS (Example 10)", "assay_type": "biochemical, human", "settings": "glucose 200 mg/dL; for effect on glucose-induced sdLDL oxidation: 10.0 μM", "procedure": "Vitamin E (α-tocopherol) purchased from Sigma-Aldrich was prepared in ethanol at 1.0 mM (ε=3.06×10^4 M^−1 cm^−1 at 294 nm) prior to experimental use. Test compounds were further diluted in ethanol or aqueous buffer as needed. Phosphate Buffered Saline (PBS) purchased from Sigma-Aldrich was prepared in double distilled water at 10 mM (138 mM NaCl, 2.7 mM KCl, pH 7.4). […] Lipid oxidation was measured by the colorimetric detection of malondialdehyde (MDA), a marker of oxidative stress."}, "[5]": {"experiment": "Small angle x-ray diffraction of glucose- and peroxidation-induced cholesterol domain formation (Example 4)", "settings": "any time point (0, 72, 96 h), 1:30, glucose 200 mg/dL, vs control", "procedure": "After centrifugal orientation, sample supernatants were aspirated and aluminum foil substrates, each supporting a single membrane pellet, were removed from the sedimentation cells. […] All x-ray diffraction experiments were conducted at 20° C., 74% relative humidity.\nOriented membrane samples were aligned at grazing incidence with respect to a collimated, mono-chromatic CuKα x-ray beam (Kα1 and Kα2 unresolved; λ=1.54 Å) produced by a Rigaku Rotaflex RU-200, high-brilliance microfocus generator (Rigaku-MSC, The Woodlands, Tex.) as previously described (Mason et al., Biophys. J., vol. 55(4), pages 769-778 (1989)).\nRoutines written in Origin 8.6 (OriginLab Corporation, Northampton, Mass.) were used to determine total peak area (associated with all diffraction peaks in a given pattern) against which the second-order cholesterol domain peak was normalized."}, "human sdLDL [6]": {"tested_on": "human sdLDL", "experiment": "Copper-induced sdLDL oxidation, TBARS after 2 hr (Example 6)", "assay_type": "biochemical", "procedure": "Venous blood was collected from healthy volunteers into vacutainer tubes containing sodium EDTA. Plasma was separated by centrifugation at 3000 g for 25 min at 4° C. and adjusted to a density of 1.020 g/mL with KBr. Triglyceride-rich lipoproteins (TGRL) and LDL fractions were then isolated by sequential centrifugation at 70,000 rpm at 4° C. in a Beckman LE-80 ultracentrifuge using a Beckman 50.4Ti rotor (Beckman Coulter, Inc., Fullerton, Calif.). The TGRL fraction (with a relative density of <1.020) was aspirated from the top of the centrifugate and discarded, leaving an LDL-enriched infranate (with a relative density of 1.020 to 1.063). The plasma LDL fraction was further fractionated into LDL1, LDL2, LDL3, and LDL4 (sdLDL) subfractions with relative densities of 1.020 to 1.035, 1.035 to 1.050, 1.050 to 1.063, and 1.063 to 1.075, respectively. The sdLDL subfraction was retained for additional experimentation. Plasma and lipoprotein fractions were maintained at 4° C. and protected from excessive exposure to light. Prior to oxidation experiments, EDTA was removed from the lipoprotein fraction using PD-10 desalting columns (GE Healthcare, Piscataway N.J.). After equilibration of the column with phosphate buffered saline (PBS), 2.5 mL of the lipoprotein fraction was loaded on the column and the flow-through discarded. The lipoprotein was then eluted with 3 mL of PBS. The LDL fractions were further diluted with PBS to obtain a 100 μg/mL apoB100 concentration.\nLDL and sdLDL subfractions (0.6 mL each) were incubated with either 10 μL vehicle (ethanol) or 10 μL drug stock solution for 30 min to 1 hr at 37° C. Oxidation was initiated by the addition of 10 μM CuSO4. After 2 hr, 100 μL aliquots were removed from each subfraction and combined with 1.0 mL thiobarbituric acid (0.5%), 10 μL trichloroacetic acid (5%), 10 μL BHT (5 mg/mL in methanol), and 10 μL EDTA (5 mM). […]. Sample TBARS concentrations were determined spectrophotometrically by measuring sample absorbances against a standard curve derived from the hydrolysis of 1,1,3,3-tetramethoxypropane."}, "unfractionated LDL [7]": {"tested_on": "unfractionated LDL", "experiment": "Copper-induced oxidation of unfractionated LDL, TBARS after 2 hr (Example 6)", "assay_type": "biochemical, human", "settings": "1.0 μM to 10.0 μM (data not shown)", "procedure": "Venous blood was collected from healthy volunteers into vacutainer tubes containing sodium EDTA. […] Plasma and lipoprotein fractions were maintained at 4° C. and protected from excessive exposure to light. Prior to oxidation experiments, EDTA was removed from the lipoprotein fraction using PD-10 desalting columns (GE Healthcare, Piscataway N.J.). After equilibration of the column with phosphate buffered saline (PBS), 2.5 mL of the lipoprotein fraction was loaded on the column and the flow-through discarded. The lipoprotein was then eluted with 3 mL of PBS. The LDL fractions were further diluted with PBS to obtain a 100 μg/mL apoB100 concentration."}}, "data": [{"molecule": "CC(C)c1c(C(=O)Nc2ccccc2O)c(-c2ccccc2)c(-c2ccc(F)cc2)n1CC[C@@H](O)C[C@@H](O)CC(=O)O", "note": "[ATM, Atorvastatin ortho- (o-) hydroxy (active) metabolite]", "values": [{"measurement": "antioxidant effect on glucose-induced LOOH formation", "setting": "[1]; 1.0 μM, 96 hours", "result": "potent antioxidant effects"}]}, {"molecule": "Cc1ccc(C)c(OCCCC(C)(C)C(=O)O)c1", "note": "[Gemfibrozil, gemfibrozil]", "values": [{"measurement": "effect on sdLDL oxidation", "setting": "human sdLDL [2]", "result": "no significant effect"}, {"measurement": "effect on unfractionated LDL oxidation", "setting": "unfractionated LDL [3]", "result": "no significant effect"}, {"measurement": "% change Vs control (cholesterol domain peak intensity)", "setting": "[4]", "result": "10.9 ± 43.3", "unit": "%"}, {"measurement": "effect on cholesterol domains", "setting": "[4]", "result": "no significant changes in cholesterol domain size"}, {"measurement": "effect on glucose-induced sdLDL oxidation", "setting": "sdLDL", "result": "did not inhibit"}]}, {"molecule": "CC1(C)[C@@H](O[C@H]2O[C@H](C(=O)O)[C@@H](O)[C@H](O)[C@H]2O[C@@H]2O[C@H](C(=O)O)[C@@H](O)[C@H](O)[C@H]2O)CC[C@]2(C)[C@H]3C(=O)C=C4[C@@H]5C[C@@](C)(C(=O)O)CC[C@]5(C)CC[C@@]4(C)[C@]3(C)CC[C@@H]12", "note": "[Glyc, glycyrrhizin]", "values": [{"measurement": "reduction in cholesterol domain peaks vs vehicle", "setting": "[4]", "result": 54.9, "unit": "%"}]}, {"molecule": "CC(C)c1c(C(=O)Nc2ccccc2)c(-c2ccccc2)c(-c2ccc(F)cc2)n1CC[C@@H](O)C[C@@H](O)CC(=O)O", "note": "[atorvastatin]", "values": [{"measurement": "effect on sdLDL oxidation", "setting": "human sdLDL [2]", "result": "did not have any significant antioxidant activity"}, {"measurement": "inhibition of sdLDL oxidation (TBARS formation)", "setting": "human sdLDL [2]; each agent at 10 μM, vs vehicle", "result": "0.1±7", "unit": "%"}, {"measurement": "effect on unfractionated LDL oxidation", "setting": "unfractionated LDL [3]", "result": "did not have any significant antioxidant activity"}]}, {"molecule": "Cc1c(C)c2c(c(C)c1O)CC[C@@](C)(CCC[C@H](C)CCC[C@H](C)CCCC(C)C)O2", "note": "[vitamin E, α-tocopherol]", "values": [{"measurement": "effect on LOOH formation / lipid peroxidation", "setting": "[1]; 72- and 96-hour time points, 1:30 drug-to-phospholipid mole ratio", "result": "no significant effect"}, {"measurement": "effect on cholesterol domain formation", "setting": "[5]", "result": "no significant effect"}, {"measurement": "effect on sdLDL oxidation", "setting": "human sdLDL [6]; 1.0 μM to 10.0 μM", "result": "did not inhibit sdLDL oxidation except at the highest concentration"}, {"measurement": "reduction of TBARS levels", "setting": "human sdLDL [6]; 10.0 μM, 10 μM CuSO4, vs vehicle", "result": 26, "unit": "%"}, {"measurement": "effect on LDL oxidation", "setting": "unfractionated LDL [7]", "result": "did not inhibit LDL oxidation at any concentration"}, {"measurement": "effect on sdLDL oxidation", "setting": "human sdLDL [2]", "result": "no significant effect"}, {"measurement": "effect on unfractionated LDL oxidation", "setting": "unfractionated LDL [3]", "result": "no significant effect"}, {"measurement": "effect on glucose-induced sdLDL oxidation", "setting": "sdLDL", "result": "failed to inhibit sdLDL oxidation"}, {"measurement": "increase in sdLDL oxidation", "setting": "sdLDL; vs glucose-treated controls", "result": 63, "unit": "%"}]}]}
